Measurements from patent US9987278B2, “Pharmaceutical composition for treating FLT3 mutation-positive cancer, mutant FLT3 inhibitor and uses thereof” (FUJIFILM Corporation, priority 2014, dated 2018).

The molecules below were run against mutant FLT3 protein (FLT3 D835Y) (Homo sapiens (Human), UniProt P36888, D835Y) (assay: Mutant FLT3 (FLT3 D835Y) enzyme inhibition assay). Conditions: ATP 15 μmol/L, read-out: IC50 value for an enzymatic activity of a mutant FLT3 protein.
Format: biochemical

SMILES | IC50
C=CC(=O)N(C)CC(=O)NC(CC)CCNC(=O)c1cnc(NCCc2ccncc2)nc1NCCC (centres unmarked) [Compound 19] | < 1 nM
C[C@@H](C(=O)N[C@H]1C[C@@H](C#Cc2cnc(Nc3ccc(F)cc3)nc2NC2CC2)C1)N(C)C(=O)/C=C/CN(C)C [Compound 40] | < 1 nM
CCCNc1nc(Nc2ccc(C(N)=O)cc2)ncc1C#Cc1cccc(NCCNC(=O)/C=C/CN(C)C)c1 [Compound 31] | 1 to 10 nM
CCCN(C)c1nc(NCCc2ccncc2)ncc1C#Cc1cccc(NC(=O)[C@H](C)N(C)C(=O)/C=C/CN(C)C)c1 [Compound 37] | < 1 nM
C=CC(=O)NCC(=O)Nc1cccc(NC(=O)c2cnc(NCCc3ccncc3)nc2NCCC)c1 [Compound 2] | < 1 nM
CCCNc1nc(Nc2ccc(C(N)=O)cc2)ncc1C#Cc1cccc(NC(=O)[C@H](C)N(C)C(=O)/C=C/CN(C)C)c1 [Compound 29] | < 1 nM
CNc1nc(Nc2ccc(F)cc2)ncc1C#C[C@H]1C[C@@H](NC(=O)[C@H](C)N(C)C(=O)/C=C/CN(C)C)C1 [Compound 41] | < 1 nM
C=CC(=O)NCC(=O)NCCCNC(=O)c1cnc(NCCc2ccncc2)nc1NCCC [Compound 7] | < 1 nM

Results, then the molecule that gave them:

IC50 | SMILES
< 1 nM | CCCNc1nc(NCCc2ccncc2)ncc1C(=O)NCCC(CC)NC(=O)CNC(=O)/C=C/CN(C)C (centres unmarked) [Compound 18]
1 to 10 nM | CCCNc1nc(NCCc2ccncc2)ncc1C(=O)Nc1cccc(NC(=O)CNC(=O)/C=C/CN2CCOCC2)c1 [Compound 13]
1 to 10 nM | C=CC(=O)N[C@H](C)C(=O)Nc1cccc(NC(=O)c2cnc(NCCc3ccncc3)nc2NCCC)c1 [Compound 8]
< 1 nM | CCCNc1nc(NCCc2ccncc2)ncc1C(=O)NCCC(CC)NC(=O)CN(C)C(=O)/C=C/CN(C)C (centres unmarked) [Compound 20]
< 1 nM | CCCNc1nc(NCCc2ccncc2)ncc1C#Cc1cccc(NC(=O)[C@H](C)N(C)C(=O)/C=C/CN(C)C)c1 [Compound 35]
< 1 nM | CCCNc1nc(NCCc2ccncc2)ncc1C(=O)Nc1cccc(NC(=O)CNC(=O)/C=C/CN(C)C)c1 [Compound 5]
1 to 10 nM | C=CC(=O)NCC(=O)Nc1ccccc1CNC(=O)c1cnc(NCCc2ccncc2)nc1NCCC [Compound 3]
< 1 nM | C=CC(=O)NC(C)(C)C(=O)Nc1cccc(NC(=O)c2cnc(NCCc3ccncc3)nc2NCCC)c1 [Compound 9]
< 1 nM | CCCNc1nc(NCCc2ccncc2)ncc1C(=O)NCCCNC(=O)CNC(=O)/C=C/CN(C)C [Compound 23]
1 to 10 nM | C=CC(=O)NCC(=O)Nc1cc(Cl)cc(NC(=O)c2cnc(NCCc3ccncc3)nc2NCCC)c1 [Compound 4]
< 1 nM | CCCNc1nc(NCCc2ccncc2)ncc1C(=O)Nc1ccc(C)c(NC(=O)CNC(=O)/C=C/CN(C)C)c1 [Compound 22]
< 1 nM | CCCNc1nc(NCCc2ccncc2)ncc1C(=O)Nc1cccc(NC(=O)[C@H](C)NC(=O)/C=C/CN(C)C)c1 [Compound 24]

What follows are molecules tested on 32D FLT3/FL cells (assay: Cell growth assay, FLT3/FLT3 ligand-coexpressing 32D cell line). Conditions: Mus musculus, 48 h, FLT3/FL, 2 days with compound, read-out: GI50 value for growth of FLT3 protein-expressing 32D cells.
Format: cell-based
Description: RPMI1640 and DMEM were purchased from Life Technologies or SIGMA. The 32D cells were obtained from RIKEN Bioresource Center, and cultured in the presence of 5% CO2 at 37° C. using an RPMI1640 medium containing 1 ng/mL mouse IL-3, 10% fetal bovine serum (FBS), 100 U/mL penicillin and […] streptomycin. The PLAT-E cells were kindly provided by Dr. Kitamura Toshio of Tokyo University and cultured in a DMEM medium containing 1 μg/mL puromycin, 10 μg/mL blasticidin S, 10% FBS, 100 U/mL penicillin and […] streptomycin. […] A pGEM-T vector, FuGENE6 and CellTiter 96 AQueous One Solution Cell Proliferation Assay were purchased from Promega Corporation.
(§1) Individual cells were seeded onto a 96-well plate (Becton, Dickinson and Company) at a density of 1000 to 10000 cells/well, and the cell culture was started at 37° C. in the presence of 5% CO2. On the next day, the compound diluted in 3-fold common ratio was added to each well, followed by further culturing for 2 days. Then, in order to evaluate the cell viability, a CellTiter 96 AQueous One SolutionReagent was added to each well according to the Promega Corporation's protocol, followed by culturing for 1 hour. […] In a case where the absorbance is insufficient, the absorbance was measured after performing the culturing for another 1 to 2 hours.

SMILES | GI50
C[C@@H](C(=O)N[C@H]1C[C@@H](C#Cc2cnc(Nc3ccc(F)cc3)nc2NC2CC2)C1)N(C)C(=O)/C=C/CN(C)C [Compound 40] | < 1 nM
CNc1nc(Nc2ccc(F)cc2)ncc1C#C[C@H]1C[C@@H](NC(=O)[C@H](C)N(C)C(=O)/C=C/CN(C)C)C1 [Compound 41] | < 1 nM

The molecules below were run on 32D FLT3 D835Y cells (assay: Cell growth assay, 32D FLT3 D835Y). Conditions: Mus musculus, 48 h, FLT3 D835Y, 2 days with compound, read-out: GI50 value for growth of FLT3 protein-expressing 32D cells.
Format: cell-based
Description: (§2) After the virus-containing culture supernatant was added to the mouse hematopoietic precursor cell line 32D cells in the presence of 10 μg/mL polybrene, and the cells were cultured in the presence of 0.5 ng/mL mouse IL-3.
as §1

SMILES | GI50
C[C@@H](C(=O)N[C@H]1C[C@@H](C#Cc2cnc(Nc3ccc(F)cc3)nc2NC2CC2)C1)N(C)C(=O)/C=C/CN(C)C [Compound 40] | < 1 nM
CNc1nc(Nc2ccc(F)cc2)ncc1C#C[C@H]1C[C@@H](NC(=O)[C@H](C)N(C)C(=O)/C=C/CN(C)C)C1 [Compound 41] | 1 to 10 nM

These molecules were tested on 32D FLT3 D835V cells (assay: Cell growth assay, 32D FLT3 D835V). Conditions: Mus musculus, 48 h, FLT3 D835V, 2 days with compound, read-out: GI50 value for growth of FLT3 protein-expressing 32D cells.
Format: cell-based
Description: as §2, §1

SMILES | GI50
C[C@@H](C(=O)N[C@H]1C[C@@H](C#Cc2cnc(Nc3ccc(F)cc3)nc2NC2CC2)C1)N(C)C(=O)/C=C/CN(C)C [Compound 40] | < 1 nM
CNc1nc(Nc2ccc(F)cc2)ncc1C#C[C@H]1C[C@@H](NC(=O)[C@H](C)N(C)C(=O)/C=C/CN(C)C)C1 [Compound 41] | 1 to 10 nM

Each molecule was assayed on 32D FLT3 D835H cells (assay: Cell growth assay, 32D FLT3 D835H). Conditions: Mus musculus, 48 h, FLT3 D835H, 2 days with compound, read-out: GI50 value for growth of FLT3 protein-expressing 32D cells.
Format: cell-based
Description: as §2, §1

SMILES | GI50
C[C@@H](C(=O)N[C@H]1C[C@@H](C#Cc2cnc(Nc3ccc(F)cc3)nc2NC2CC2)C1)N(C)C(=O)/C=C/CN(C)C [Compound 40] | 1 to 10 nM
CNc1nc(Nc2ccc(F)cc2)ncc1C#C[C@H]1C[C@@H](NC(=O)[C@H](C)N(C)C(=O)/C=C/CN(C)C)C1 [Compound 41] | 1 to 10 nM

Each molecule was assayed on 32D FLT3 D835E cells (assay: Cell growth assay, 32D FLT3 D835E). Conditions: Mus musculus, 48 h, FLT3 D835E, 2 days with compound, read-out: GI50 value for growth of FLT3 protein-expressing 32D cells.
Format: cell-based
Description: as §2, §1

SMILES | GI50
C[C@@H](C(=O)N[C@H]1C[C@@H](C#Cc2cnc(Nc3ccc(F)cc3)nc2NC2CC2)C1)N(C)C(=O)/C=C/CN(C)C [Compound 40] | < 1 nM
CNc1nc(Nc2ccc(F)cc2)ncc1C#C[C@H]1C[C@@H](NC(=O)[C@H](C)N(C)C(=O)/C=C/CN(C)C)C1 [Compound 41] | 1 to 10 nM

The molecules below were run on 32D FLT3 D835N cells (assay: Cell growth assay, 32D FLT3 D835N). Conditions: Mus musculus, 48 h, FLT3 D835N, 2 days with compound, read-out: GI50 value for growth of FLT3 protein-expressing 32D cells.
Format: cell-based
Description: as §2, §1

SMILES | GI50
C[C@@H](C(=O)N[C@H]1C[C@@H](C#Cc2cnc(Nc3ccc(F)cc3)nc2NC2CC2)C1)N(C)C(=O)/C=C/CN(C)C [Compound 40] | < 1 nM
CNc1nc(Nc2ccc(F)cc2)ncc1C#C[C@H]1C[C@@H](NC(=O)[C@H](C)N(C)C(=O)/C=C/CN(C)C)C1 [Compound 41] | 1 to 10 nM

The molecules below were run on 32D FLT3 D835Ins cells (assay: Cell growth assay, 32D FLT3 D835Ins). Conditions: Mus musculus, 48 h, FLT3 D835Ins (I836 to leucine and aspartic acid), 2 days with compound, read-out: GI50 value for growth of FLT3 protein-expressing 32D cells.
Format: cell-based
Description: as §2, §1

SMILES | GI50
C[C@@H](C(=O)N[C@H]1C[C@@H](C#Cc2cnc(Nc3ccc(F)cc3)nc2NC2CC2)C1)N(C)C(=O)/C=C/CN(C)C [Compound 40] | < 1 nM
CNc1nc(Nc2ccc(F)cc2)ncc1C#C[C@H]1C[C@@H](NC(=O)[C@H](C)N(C)C(=O)/C=C/CN(C)C)C1 [Compound 41] | 1 to 10 nM

The molecules below were run on 32D FLT3 Y842C cells (assay: Cell growth assay, 32D FLT3 Y842C). Conditions: Mus musculus, 48 h, FLT3 Y842C, 2 days with compound, read-out: GI50 value for growth of FLT3 protein-expressing 32D cells.
Format: cell-based
Description: as §2, §1

SMILES | GI50
C[C@@H](C(=O)N[C@H]1C[C@@H](C#Cc2cnc(Nc3ccc(F)cc3)nc2NC2CC2)C1)N(C)C(=O)/C=C/CN(C)C [Compound 40] | 1 to 10 nM
CNc1nc(Nc2ccc(F)cc2)ncc1C#C[C@H]1C[C@@H](NC(=O)[C@H](C)N(C)C(=O)/C=C/CN(C)C)C1 [Compound 41] | 1 to 10 nM

The molecules below were run on 32D FLT3 Y842H cells (assay: Cell growth assay, 32D FLT3 Y842H). Conditions: Mus musculus, 48 h, FLT3 Y842H, 2 days with compound, read-out: GI50 value for growth of FLT3 protein-expressing 32D cells.
Format: cell-based
Description: as §2, §1

SMILES | GI50
C[C@@H](C(=O)N[C@H]1C[C@@H](C#Cc2cnc(Nc3ccc(F)cc3)nc2NC2CC2)C1)N(C)C(=O)/C=C/CN(C)C [Compound 40] | 1 to 10 nM
CNc1nc(Nc2ccc(F)cc2)ncc1C#C[C@H]1C[C@@H](NC(=O)[C@H](C)N(C)C(=O)/C=C/CN(C)C)C1 [Compound 41] | 1 to 10 nM
